Reference: article PMC8217813, “Bridging Computational Vaccinology and Vaccine Development Through Systematic Identification, Characterization, and Downselection of Conserved and Variable Circumsporozoite Protein CD4 T Cell Epitopes From Diverse Plasmodium falciparum Strains” (Frontiers in Immunology, 2021)
Peptide text beside a SMILES is read from it.

What was measured:
HLA-DRB1*0701 = HLA-DRB1*0701 (Homo sapiens, UniProt P01903+P01911, A100R/A102G/A103Q/D57E/D86V/E43K/F76Y/K127E/L162R/M171V/P40G/Q125H/Q99D/R33Q/R42Y/R54Q/S133A/S66F/T210M/V115G/Y107V/Y59L/Y89S); assay: In vitro class II HLA binding competition assay; settings: competition with fluorescent-labeled reference peptide, class II HLA monomers, 24-hours, test peptide 100,000 nM to 100 nM, time-resolved fluorescence; read-out: IC50, DRB1*0701
Procedure: (§1) EpiVax conducted in vitro quantification of peptide-HLA binding affinity utilizing a competition assay format per the methodology described in ([35]). Briefly, a fluorescent-labeled, high-binding reference peptide and titrating concentrations of test peptide were incubated in a 96-well plate format with limiting concentrations of class II HLA monomers in aqueous buffer for 24-hours. Post incubation, the mixtures were moved to a 96-well plate coated with anti-HLA-DR antibody to capture HLA-peptide complexes. Time-resolved fluorescence measurement of the bound labeled reference peptide complex present in each mixture were detected with a europium-linked probe via fluorescent spectrophotometry using a SpectraMax M5 system. HLA binding affinity of each test peptide was expressed as the percent inhibition of reference peptide binding. Percent inhibition values (across the test peptide titration range) were used to calculate the half maximal inhibitory concentration (IC50) of each test peptide. For these studies, test peptides were assessed using a range of final concentrations from 100,000 nM to 100 nM and all peptides were reconstituted in dimethyl sulfoxide (DMSO).

HLA-DRB1*1301 = HLA-DRB1*1301 (Homo sapiens, UniProt P01903+P01911, A100E/A169T/K41T/L162R/M171V/P40S/Q125H/Q178H/Q39Y/Q99D/R42S/S66N/T262R/W38E/Y61H); assay: In vitro class II HLA binding competition assay; settings: competition with fluorescent-labeled reference peptide, class II HLA monomers, 24-hours, test peptide 100,000 nM to 100 nM, time-resolved fluorescence
Procedure: as §1

HLA-DRB1*1501 = target: T1, HLA-DRB1*1501 (Homo sapiens, UniProt P01903+P01911); assay: In vitro class II HLA binding competition assay; settings: competition with fluorescent-labeled reference peptide, class II HLA monomers, 24-hours, test peptide 100,000 nM to 100 nM, time-resolved fluorescence; read-out: IC50, DRB1*1501
T1 construct: purchased
Procedure: as §1

HLA-DRB1*0401 = target: T2, HLA-DRB1*0401 (Homo sapiens, UniProt P01903+P01911, A100K/A169T/F76Y/I96L/K127E/L162R/M171V/N62H/P40V/Q125Y/R42H/S133A/S149N/S66Y/V115G/V209L/W38E); assay: In vitro class II HLA binding competition assay; settings: competition with fluorescent-labeled reference peptide, class II HLA monomers, 24-hours, test peptide 100,000 nM to 100 nM, time-resolved fluorescence; read-out: IC50, DRB1*0401
T2 construct: purchased
Procedure: as §1

HLA-DRB1*0301 = HLA-DRB1*0301 (Homo sapiens, UniProt P01903+P01911, A100K/A102G/A103R/A169T/F55Y/I96L/K41T/L162R/M171V/P40S/Q125H/Q178H/Q39Y/R42S/S66N/T106N/T262R/W38E/Y61H); assay: In vitro class II HLA binding competition assay; settings: competition with fluorescent-labeled reference peptide, class II HLA monomers, 24-hours, test peptide 100,000 nM to 100 nM, time-resolved fluorescence
Procedure: as §1

HLA-DRB1*0101 = target: T3, HLA-DRB1*0101 (Homo sapiens, UniProt P01903+P01911, A100R/D57E/F55L/F60I/F76Y/I96L/L162R/M171V/P40L/Q125E/R42F/V115G/Y59C); assay: In vitro class II HLA binding competition assay; settings: competition with fluorescent-labeled reference peptide, class II HLA monomers, 24-hours, test peptide 100,000 nM to 100 nM, time-resolved fluorescence
T3 construct: purchased
Procedure: as §1

HLA-DRB1*1101 = target: T4, HLA-DRB1*1101 (Homo sapiens, UniProt P01903+P01911, A100R/A169T/A87E/I96F/K41T/L162R/M171V/P40S/Q125H/Q178H/Q39Y/Q99D/R42S/S66Y/T262R/V115G/W38E); assay: In vitro class II HLA binding competition assay; settings: competition with fluorescent-labeled reference peptide, class II HLA monomers, 24-hours, test peptide 100,000 nM to 100 nM, time-resolved fluorescence
T4 construct: purchased
Procedure: as §1

[1] = test system: CD4 T cells co-cultured with autologous DCs from PBMCs; assay type: cell-based, human; settings: positive = Stimulation Index ≥1.5-fold above baseline, 5 µg/mL peptide

CC[C@H](C)[C@H](NC(=O)[C@H](CO)NC(=O)[C@H](CO)NC(=O)[C@H](CC(N)=O)NC(=O)[C@@H](NC(=O)[C@@H](NC(=O)[C@H](CC(N)=O)NC(=O)[C@H](Cc1ccccc1)NC(=O)[C@@H](NC(=O)[C@H](CO)NC(=O)[C@H](CO)NC(=O)[C@@H](N)CCCCN)C(C)C)C(C)C)C(C)C)C(=O)NCC(=O)N[C@@H](CC(C)C)C(=O)N[C@H](C(=O)N[C@@H](CCSC)C(=O)N[C@H](C(=O)N[C@@H](CC(C)C)C(=O)N[C@@H](CO)C(N)=O)C(C)C)[C@@H](C)CC [Cluster C4] (H-KSSVFNVVNSSIGLIMVLS-NH2)
IC50 (HLA-DRB1*0701): 2070 nM | IC50 (HLA-DRB1*1301): 1200 nM | IC50 (HLA-DRB1*1501): 12.3 µM | IC50 (HLA-DRB1*0401): 1690 nM | IC50 (HLA-DRB1*0301): 1100 nM | IC50 (HLA-DRB1*0101): 526 nM | IC50 (HLA-DRB1*1101): 1040 nM | Percentage of donors demonstrating IFN-γ responses, DR1 ([1]; DR1 donors N=5, ICCS after 14-day co-culture): 20% | Percentage of donors demonstrating IL-2 responses, DR1 ([1]; DR1 donors N=5, ICCS): 0% | Percentage of donors demonstrating IL-4 responses, DR1 ([1]; DR1 donors N=5, ICCS): 0% | Percentage of donors demonstrating IL-10 responses, DR1 ([1]; DR1 donors N=5, ICCS): 20% | Percentage of donors demonstrating TNF-α responses, DR1 ([1]; DR1 donors N=5, ICCS): 0% | Percentage of donors demonstrating IFN-γ responses, DR3 ([1]; DR3 donors N=6, ICCS after 14-day co-culture): 17% | Percentage of donors demonstrating IL-2 responses, DR3 ([1]; DR3 donors N=6, ICCS): 0% | Percentage of donors demonstrating IL-4 responses, DR3 ([1]; DR3 donors N=6, ICCS): 0% | Percentage of donors demonstrating IL-10 responses, DR3 ([1]; DR3 donors N=6, ICCS): 0% | Percentage of donors demonstrating TNF-α responses, DR3 ([1]; DR3 donors N=6, ICCS): 0% | Percentage of donors demonstrating IFN-γ responses, DR4 ([1]; DR4 donors N=10, ICCS after 14-day co-culture): 30% | Percentage of donors demonstrating IL-2 responses, DR4 ([1]; DR4 donors N=10, ICCS): 0% | Percentage of donors demonstrating IL-4 responses, DR4 ([1]; DR4 donors N=10, ICCS): 40% | Percentage of donors demonstrating IL-10 responses, DR4 ([1]; DR4 donors N=10, ICCS): 20% | Percentage of donors demonstrating TNF-α responses, DR4 ([1]; DR4 donors N=10, ICCS): 10% | Percentage of donors demonstrating IFN-γ responses, DR7 ([1]; DR7 donors N=4, ICCS after 14-day co-culture): 0% | Percentage of donors demonstrating IL-2 responses, DR7 ([1]; DR7 donors N=4, ICCS): 0% | Percentage of donors demonstrating IL-4 responses, DR7 ([1]; DR7 donors N=4, ICCS): 25% | Percentage of donors demonstrating IL-10 responses, DR7 ([1]; DR7 donors N=4, ICCS): 0% | Percentage of donors demonstrating TNF-α responses, DR7 ([1]; DR7 donors N=4, ICCS): 0% | Percentage of donors demonstrating IFN-γ responses, DR8 ([1]; DR8 donors N=4, ICCS after 14-day co-culture): 25% | Percentage of donors demonstrating IL-2 responses, DR8 ([1]; DR8 donors N=4, ICCS): 25% | Percentage of donors demonstrating IL-4 responses, DR8 ([1]; DR8 donors N=4, ICCS): 25% | Percentage of donors demonstrating IL-10 responses, DR8 ([1]; DR8 donors N=4, ICCS): 25% | Percentage of donors demonstrating TNF-α responses, DR8 ([1]; DR8 donors N=4, ICCS): 25% | Percentage of donors demonstrating IFN-γ responses, DR9 ([1]; DR9 donors N=4, ICCS after 14-day co-culture): 0% | Percentage of donors demonstrating IL-2 responses, DR9 ([1]; DR9 donors N=4, ICCS): 25% | Percentage of donors demonstrating IL-4 responses, DR9 ([1]; DR9 donors N=4, ICCS): 25% | Percentage of donors demonstrating IL-10 responses, DR9 ([1]; DR9 donors N=4, ICCS): 0% | Percentage of donors demonstrating TNF-α responses, DR9 ([1]; DR9 donors N=4, ICCS): 25% | Percentage of donors demonstrating IFN-γ responses, DR11 ([1]; DR11 donors N=4, ICCS after 14-day co-culture): 50% | Percentage of donors demonstrating IL-2 responses, DR11 ([1]; DR11 donors N=4, ICCS): 25% | Percentage of donors demonstrating IL-4 responses, DR11 ([1]; DR11 donors N=4, ICCS): 0% | Percentage of donors demonstrating IL-10 responses, DR11 ([1]; DR11 donors N=4, ICCS): 0% | Percentage of donors demonstrating TNF-α responses, DR11 ([1]; DR11 donors N=4, ICCS): 25% | Percentage of donors demonstrating IFN-γ responses, DR13 ([1]; DR13 donors N=7, ICCS after 14-day co-culture): 29% | Percentage of donors demonstrating IL-2 responses, DR13 ([1]; DR13 donors N=7, ICCS): 43% | Percentage of donors demonstrating IL-4 responses, DR13 ([1]; DR13 donors N=7, ICCS): 14% | Percentage of donors demonstrating IL-10 responses, DR13 ([1]; DR13 donors N=7, ICCS): 0% | Percentage of donors demonstrating TNF-α responses, DR13 ([1]; DR13 donors N=7, ICCS): 43% | Percentage of donors demonstrating IFN-γ responses, DR15 ([1]; DR15 donors N=7, ICCS after 14-day co-culture): 0% | Percentage of donors demonstrating IL-2 responses, DR15 ([1]; DR15 donors N=7, ICCS): 0% | Percentage of donors demonstrating IL-4 responses, DR15 ([1]; DR15 donors N=7, ICCS): 29% | Percentage of donors demonstrating IL-10 responses, DR15 ([1]; DR15 donors N=7, ICCS): 0% | Percentage of donors demonstrating TNF-α responses, DR15 ([1]; DR15 donors N=7, ICCS): 14%
